In patent publication US8889670B2, “Heterocyclic compounds which modulate the CB2 receptor” (Boehringer Ingelheim International GmbH, priority 2009, dated 2014):
pEC50: −log10 of the molar value. Read-outs that look alike come from different tables or passages of the source.

Target: T1, human CB2R (Homo sapiens, UniProt P34972)
T1 construct: host or cells: CHO cells
Assay: CB2R mediated modulation of cAMP synthesis (forskolin-stimulated cAMP, CHO cells expressing human CB2R)
Type: cell-based
Conditions: for EC50: agonist EC50, inhibition of forskolin-stimulated cAMP synthesis, CHO cells expressing human CB2R, mean, read-out: CB2 CAMP @ EC50 nM (mean)
Description: B. CB2R Mediated Modulation of cAMP Synthesis:
Compounds of the invention were evaluated for their CB2 agonist or inverse agonistic activity in accordance with the following experimental method.
CHO cells expressing human CB2R (Euroscreen) were plated at a density of 5000 cells per well in 384 well plates and incubated overnight at 37° C. After removing the media, the cells were treated with test compounds diluted in stimulation buffer containing 1 mM IBMX, 0.25% BSA and 10 uM Forskolin. The assay was incubated for 30 minutes at 37° C. Cells were lysed and the cAMP concentration was measured using DiscoverX-XS cAMP kit, following the manufacturer's protocol. In this setting, agonists will decrease forskolin induced production of cAMP while inverse agonists will further increase forskolin induced production of cAMP. EC50 of agonists were calculated as follows. The maximal amount of cAMP produced by forskolin compared to the level of cAMP inhibited by 1 uM CP55940 is defined as 100%. […] Data was analyzed using a four-parameter logistic model. (Model 205 of XLfit 4.0).

T1 sequence (P34972 whole entry): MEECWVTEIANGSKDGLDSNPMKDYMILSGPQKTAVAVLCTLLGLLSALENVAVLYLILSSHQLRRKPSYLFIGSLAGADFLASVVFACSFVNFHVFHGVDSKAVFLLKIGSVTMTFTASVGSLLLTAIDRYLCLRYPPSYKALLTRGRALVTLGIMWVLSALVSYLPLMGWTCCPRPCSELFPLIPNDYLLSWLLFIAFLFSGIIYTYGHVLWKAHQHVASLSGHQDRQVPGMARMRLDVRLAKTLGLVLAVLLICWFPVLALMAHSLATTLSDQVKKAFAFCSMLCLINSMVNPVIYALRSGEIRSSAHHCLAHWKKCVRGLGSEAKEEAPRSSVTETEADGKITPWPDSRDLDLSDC

| SMILES | pEC50 | EC50 [nM] |
| --- | --- | --- |
| CC(C)(C)c1cc(NC(=O)[C@@H]2CCCCN2C(=O)C2CCCC2)no1 [(S)-1-Cyclopentanecarbonyl-piperidine-2-carboxylic acid (5-tert-butyl-isoxazol-3-yl)-amide] | 7.85 | – |
| CC(C)(C)c1cc(NC(=O)C2CCCN(C(=O)C3CCC(F)(F)CC3)C2)no1 (centres unmarked) [1-(4,4-Difluoro-cyclohexanecarbonyl)-piperidine-3-carboxylic acid (5-tert-butyl-isoxazol-3-yl)-amide] | 7.64 | – |
| CC(C)(C)c1cc(NC(=O)[C@H]2CCCN(C(=O)C3CCC(F)(F)CC3)C2)no1 [(S)-1-(4,4-Difluoro-cyclohexanecarbonyl)-piperidine-3-carboxylic acid (5-tert-butyl-isoxazol-3-yl)-amide] | 6.92 | – |
| CC(C)(C)c1nnc(NC(=O)[C@@H]2CCCCN2C2CCC2)s1 [(S)-1-Cyclobutyl-piperidine-2-carboxylic acid (5-tert-butyl-1,3,4-thiadiazol-2-yl)-amide] | – | 140 |
| CC(C)(C)c1cc(NC(=O)[C@@H]2CCCCN2C(=O)C2CCC(F)(F)CC2)on1 [(S)-1-(4,4-Difluoro-cyclohexanecarbonyl)-piperidine-2-carboxylic acid (3-tert-butyl-isoxazol-5-yl)-amide] | 9.00 | – |
| CC(C)(C)c1cc(NC(=O)[C@@H]2CCCN(c3ncc(C(F)(F)F)cc3Cl)C2)no1 [(R)-3′-Chloro-5′-trifluoromethyl-3,4,5,6-tetrahydro-2H-[1,2′]bipyridinyl-3-carboxylic acid (5-tert-butyl-isoxazol-3-yl)-amide] | 7.27 | – |
| O=C(Nc1ccc(C(F)(F)F)c(F)c1)[C@@H]1CCCCN1CC1CCOCC1 [(S)-1-(Tetrahydro-pyran-4-ylmethyl)-piperidine-2-carboxylic acid (3-fluoro-4-trifluoromethyl-phenyl)-amide] | – | 1.8 |
| O=C(Nc1ccc(F)c(C(F)(F)F)c1)[C@@H]1CCCCN1CC1CCOCC1 [(S)-1-(Tetrahydro-pyran-4-ylmethyl)-piperidine-2-carboxylic acid (4-fluoro-3-trifluoromethyl-phenyl)-amide] | 7.59 | – |
| O=C(Nc1nc(C2CCCCC2)cs1)[C@@H]1CCCCN1CC1CCOCC1 [(S)-1-(Tetrahydro-pyran-4-ylmethyl)-piperidine-2-carboxylic acid (4-cyclohexyl-thiazol-2-yl)-amide] | – | 9 |
| O=C(Nc1nc(-c2ccc(Cl)cc2)cs1)[C@@H]1CCCCN1C(=O)N1CCS(=O)(=O)CC1 [(S)-1-(1,1-Dioxo-1λ^6-thiomorpholine-4-carbonyl)-piperidine-2-carboxylic acid [4-(4-chloro-phenyl)-thiazol-2-yl]-amide] | 8.00 | – |
| O=C(Nc1cc(C2CCCCC2)no1)[C@@H]1CCCCN1C(=O)N1CCS(=O)(=O)CC1 [(S)-1-(1,1-Dioxo-1λ^6-thiomorpholine-4-carbonyl)-piperidine-2-carboxylic acid (3-cyclohexyl-isoxazol-5-yl)-amide] | 7.23 | – |
| CC(C)(C)c1cc(NC(=O)[C@@H]2C[C@@H](O)CCN2c2ncc(C(F)(F)F)cc2Cl)no1 [(2S,4S)-3′-Chloro-4-hydroxy-5′-trifluoromethyl-3,4,5,6-tetrahydro-2H-[1,2′]bipyridinyl-2-carboxylic acid (5-tert-butyl-isoxazol-3-yl)-amide] | 9.52 | – |
| CC(C)(C)c1cc(NC(=O)C2COCCN2S(=O)(=O)c2ccc(Cl)cc2)no1 (centres unmarked) [4-(4-Chloro-benzenesulfonyl)-morpholine-3-carboxylic acid (5-tert-butyl-isoxazol-3-yl)-amide] | 7.47 | – |
| O=C(Nc1cc(C(F)(F)F)ccn1)[C@@H]1CCCCN1CC1CCOCC1 [(S)-1-(Tetrahydro-pyran-4-ylmethyl)-piperidine-2-carboxylic acid (4-trifluoromethyl-pyridin-2-yl)-amide] | – | 290 |
| CC(C)(C)c1cc(NC(=O)C2CCCN(C(=O)N3CCS(=O)(=O)CC3)C2)no1 (centres unmarked) [1-(1,1-Dioxo-1λ6-thiomorpholine-4-carbonyl)-piperidine-3-carboxylic acid (5-tert-butyl-isoxazol-3-yl)-amide] | – | 215 |
| COCC(C)(C)c1cc(NC(=O)[C@@H]2CCCCN2C(=O)N2CCS(=O)(=O)CC2)no1 [(S)-1-(1,1-Dioxo-1λ^6-thiomorpholine-4-carbonyl)-piperidine-2-carboxylic acid [5-(2-methoxy-1,1-dimethyl-ethyl)-isoxazol-3-yl]-amide] | – | 162 |
| CC(C)(C)c1cc(NC(=O)[C@@H]2CCCCN2S(=O)(=O)c2ccc(Cl)cc2)no1 [(S)-1-(4-Chloro-benzenesulfonyl)-piperidine-2-carboxylic acid (5-tert-butyl-isoxazol-3-yl)-amide] | 7.68 | – |
| O=C(Nc1nsc(-c2ccccc2)n1)[C@@H]1CCCCN1CC1CCOCC1 [(S)-1-(Tetrahydro-pyran-4-ylmethyl)-piperidine-2-carboxylic acid (5-phenyl-1,2,4-thiadiazol-3-yl)-amide] | – | 14 |

| SMILES | pEC50 | EC50 [nM] |
| --- | --- | --- |
| O=C(Nc1nc(-c2ccccc2)ns1)[C@@H]1CCCCN1CC1CCOCC1 [(S)-1-(Tetrahydro-pyran-4-ylmethyl)-piperidine-2-carboxylic acid (3-phenyl-1,2,4-thiadiazol-5-yl)-amide] | – | 1.2 |
| CCn1nc(NC(=O)[C@@H]2CCCCN2C(=O)CN2CCC(F)(F)C2)nc1-c1ccccc1 [(S)-1-[2-(3,3-Difluoro-pyrrolidin-1-yl)-acetyl]-piperidine-2-carboxylic acid (1-ethyl-5-phenyl-1H-1,2,4-triazol-3-yl)-amide] | – | 262 |
| O=C(Nc1nc(-c2ccccc2)cs1)[C@@H]1CCCCN1CC1CCOCC1 [(S)-1-(Tetrahydro-pyran-4-ylmethyl)-piperidine-2-carboxylic acid (4-phenyl-thiazol-2-yl)-amide] | – | 9.9 |
| O=C(Nc1nc2c(F)cccc2s1)[C@@H]1CCCCN1C(=O)N1CCS(=O)(=O)CC1 [(S)-1-(1,1-Dioxo-1λ^6-thiomorpholine-4-carbonyl)-piperidine-2-carboxylic acid (4-fluoro-benzothiazol-2-yl)-amide] | – | 59 |
| CCC(C)c1cc(NC(=O)[C@@H]2CCCCN2C(=O)N2CCS(=O)(=O)CC2)on1 (stereo partly drawn) [(S)-1-(1,1-Dioxo-1λ^6-thiomorpholine-4-carbonyl)-piperidine-2-carboxylic acid (3-sec-butyl-isoxazol-5-yl)-amide] | – | 105 |
| CC(C)(C)c1cc(NC(=O)C2CCCN(S(=O)(=O)c3ccc(Cl)cc3)C2)no1 (centres unmarked) [1-(4-Chloro-benzenesulfonyl)-piperidine-3-carboxylic acid (5-tert-butyl-isoxazol-3-yl)-amide] | 7.92 | – |
| O=C(Nc1nc2cc(Cl)ccc2[nH]1)[C@@H]1CCCCN1C(=O)N1CCS(=O)(=O)CC1 [(S)-1-(1,1-Dioxo-1λ^6-thiomorpholine-4-carbonyl)-piperidine-2-carboxylic acid (5-chloro-1H-benzimidazol-2-yl)-amide] | 7.11 | – |
| CO[C@H]1CC[C@@H](C(=O)N2CCCC[C@H]2C(=O)Nc2cc(C(C)(C)C)on2)CC1 | 7.37 | – |
| O=C(Nc1nc(-c2ccc(F)cc2)ns1)[C@@H]1CCCCN1C(=O)N1CCS(=O)(=O)CC1 [(S)-1-(1,1-Dioxo-1λ^6-thiomorpholine-4-carbonyl)-piperidine-2-carboxylic acid [3-(4-fluoro-phenyl)-[1,2,4]thiadiazol-5-yl]-amide] | – | 22 |
| CCn1nc(NC(=O)[C@@H]2CCCCN2C(=O)CC2CCS(=O)(=O)C2)nc1-c1ccccc1 (stereo partly drawn) [(S)-1-[2-(1,1-Dioxo-tetrahydro-1λ^6-thiophen-3-yl)-acetyl]-piperidine-2-carboxylic acid (1-ethyl-5-phenyl-1H-1,2,4-triazol-3-yl)-amide] | – | 365 |
| CC(C)(C)c1nnc(NC(=O)[C@@H]2CCCCN2C2CC2)s1 [(S)-1-Cyclopropyl-piperidine-2-carboxylic acid (5-tert-butyl-1,3,4-thiadiazol-2-yl)-amide] | – | 485 |
| CC(C)(C)c1cc(NC(=O)[C@@H]2CCCCN2c2ncc(C(F)(F)F)cc2Cl)no1 [(S)-3′-Chloro-5′-trifluoromethyl-3,4,5,6-tetrahydro-2H-[1,2′]bipyridinyl-2-carboxylic acid (5-tert-butyl-isoxazol-3-yl)-amide] | 9.74 | – |
| CC(C)(C)c1cc(NC(=O)[C@@H]2CCCCN2C(=O)c2cccc(Cl)c2)no1 [(S)-1-(3-Chloro-benzoyl)-piperidine-2-carboxylic acid (5-tert-butyl-isoxazol-3-yl)-amide] | 7.36 | – |
| CC(C)(C)c1cc(NC(=O)[C@@H]2CCCCN2C(=O)CN2CCCC2)no1 [(S)-1-(2-Pyrrolidin-1-yl-acetyl)-piperidine-2-carboxylic acid (5-tert-butyl-isoxazol-3-yl)-amide] | – | 431 |
| CCc1sc(NC(=O)[C@@H]2CCCCN2C(=O)OC(C)(C)C)nc1-c1ccccc1 [(S)-2-(5-Ethyl-4-phenyl-thiazol-2-ylcarbamoyl)-piperidine-1-carboxylic acid tert-butyl ester] | – | 180 |
| CC(C)(C)c1cc(NC(=O)[C@@H]2CCCC(=O)N2c2ccc(Cl)cc2)on1 [(S)-1-(4-Chloro-phenyl)-6-oxo-piperidine-2-carboxylic acid (3-tert-butyl-isoxazol-5-yl)-amide] | – | 181 |
| CC(C)(C)c1cc(NC(=O)[C@@H]2CCCCN2C(=O)C2CCCCCC2)no1 | 8.09 | – |
